The results in this text go back to patent US7728146B2, “Enzyme inhibitors” (Probiodrug AG, priority 2006, dated 2010).

The target of the first experiment is DP IV (Homo sapiens, UniProt P27487). Briefly: DP IV inhibition IC50, parallel-synthesis compounds tested directly following synthesis (without purification). Type of experiment: biochemical. On the set-up: IC50 DP4; other: tested directly following parallel synthesis, without purification; compounds of formula (Ib) from parallel synthesis, tested directly following synthesis. The following applies: DP IV inhibition; compounds of formula (Ib) from parallel synthesis, tested directly following synthesis (without purification); read-out: IC50. The method, boiled down: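 IC50 came from a 4-parameter fit of residual activity (linear 405 nm slopes for pNA release over ~18 min, relative to solvent-only wells). Gly-Pro-pNA was the substrate, cleaved by porcine kidney or recombinant human DP IV at room temperature in HEPES with 5% DMSO; duplicate 1:2 series started at 100 μM final.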
With `NCc1c(-c2ccc(Cl)cc2Cl)ncn1CCc1ccccn1` [85b, C-[5-(2,4-Dichloro-phenyl)-3-(2-pyridin-2-yl-ethyl)-3H-imidazol-4-yl]-methylamine], the IC50 (commonly the concentration at which inhibition is half-maximal) stood at 24.4 µM.

For `NCc1c(-c2ccc(Cl)cc2Cl)ncn1CCc1ccc(F)cc1` [55b, C-{5-(2,4-Dichloro-phenyl)-3-[2-(4-fluoro-phenyl)-ethyl]-3H-imidazol-4-yl}-methylamine], the IC50 was 3.7 µM.

In the case of `NCc1c(-c2ccc(Cl)cc2Cl)ncn1Cc1cccc(C(F)(F)F)c1` [89b, C-[5-(2,4-Dichloro-phenyl)-3-(3-trifluoromethyl-benzyl)-3H-imidazol-4-yl]-methylamine], the IC50 is 1.9 µM.

For the compound `NCc1c(-c2ccc(Cl)cc2Cl)ncn1CCCCCCO` [16b, 6-[5-Aminomethyl-4-(2,4-dichloro-phenyl)-imidazol-1-yl]-hexan-1-ol], the IC50 amounted to 12.7 µM.

For `COc1ccc(Cn2cnc(-c3ccc(Cl)cc3Cl)c2[C@H](C)N)c(OC)c1` [62b, (S)-1-[5-(2,4-Dichloro-phenyl)-3-(2,4-dimethoxy-benzyl)-3H-imidazol-4-yl]-ethylamine], the IC50 is 10 µM.

As to `NCc1c(-c2ccc(Cl)cc2Cl)ncn1CCNc1ccc([N+](=O)[O-])cn1` [20b, {2-[5-Aminomethyl-4-(2,4-dichloro-phenyl)-imidazol-1-yl]-ethyl}-(5-nitro-pyridin-2-yl)-amine], the IC50 came out at 8.2 µM.

As to `NCc1c(-c2ccc(Cl)cc2Cl)ncn1CCNc1ccccc1` [41b, {2-[5-Aminomethyl-4-(2,4-dichloro-phenyl)-imidazol-1-yl]-ethyl}-phenyl-amine], the IC50 amounted to 32.5 µM.

For `NCc1c(-c2ccc(Cl)cc2Cl)ncn1Cc1cc(Br)ccc1F` [124b, C-[3-(5-Bromo-2-fluoro-benzyl)-5-(2,4-dichloro-phenyl)-3H-imidazol-4-yl]-methylamine], the IC50 turned out to be 34.3 µM.

Turning to `CC(N)c1c(-c2ccc(Cl)cc2Cl)ncn1CCC1=CCCCC1` (centres unmarked) [71b, 1-[3-(2-Cyclohex-1-enyl-ethyl)-5-(2,4-dichloro-phenyl)-3H-imidazol-4-yl]-ethylamine], the IC50 stood at 35.2 µM.

Take `CC(C)CCCCCCn1cnc(-c2ccc(Cl)cc2Cl)c1C(C)N` (centres unmarked) [51b, 1-[5-(2,4-Dichloro-phenyl)-3-(7-methyl-octyl)-3H-imidazol-4-yl]-ethylamine]: the IC50 is 37.9 µM.

The experiment is the same for the next values; noted with them: tested directly following parallel synthesis, without purification; read-out: IC50 DP4.
On to `NCc1c(-c2ccc(Cl)cc2Cl)ncn1Cc1ccsc1` [Example 43a, C-[5-(2,4-Dichloro-phenyl)-3-thio-phen-3-yl-methyl-3H-imid-azol-4-yl]-methyl-amine], for which the IC50 turned out to be 0.1 µM.

As for `CCCn1cnc(-c2ccc(Cl)cc2Cl)c1CN` [Example 40a, C-[5-(2,4-Dichloro-phenyl)-3-pro-pyl-3H-imid-azol-4-yl]-methyl-amine], the IC50 amounted to 3.7 µM.

For `Cc1ccccc1Cn1cnc(-c2ccc(Cl)cc2Cl)c1CN` [Example 46a, C-[5-(2,4-Dichloro-phenyl)-3-(2-methyl-benzyl)-3H-imid-azol-4-yl]-methyl-amine], the IC50 stood at 1 µM.

As for `NCc1c(-c2ccc(F)cc2Cl)ncn1Cc1ccc(F)cc1F` [Example 7a, C-[5-(2-Chloro-4-fluoro-phenyl)-3-(2,4-difluoro-benzyl)-3H-imid-azol-4-yl]-methyl-amine], the IC50 came out at 27.1 µM.

As to `NCc1c(-c2ccc(Cl)cc2Cl)ncn1Cc1ccccc1Cl` [Example 34a, C-[3-(2-Chloro-benzyl)-5-(2,4-di-chloro-phenyl)-3H-imid-azol-4-yl]-methyl-amine], the IC50 was 1 µM.

`NCc1c(-c2ccc(F)cc2F)ncn1Cc1cc(Br)ccc1F` [Example 79a, C-[3-(5-Bro-mo-2-fluoro-benzyl)-5-(2,4-difluoro-phenyl)-3H-imid-azol-4-yl]-methyl-amine]: the IC50 turned out to be 32.5 µM.

On to `NCc1c(-c2ccc(F)cc2Cl)ncn1Cc1ccc(Cl)c(Cl)c1` [Example 25a, C-[5-(2-Chloro-4-fluoro-phenyl)-3-(3,4-di-chloro-benzyl)-3H-imid-azol-4-yl]-methyl-amine], for which the IC50 stood at 33.4 µM.
